# Measured values taken from publication PMC5007552, “The hVps34‐SGK3 pathway alleviates sustained PI3K/Akt inhibition by stimulating mTORC1 and tumour growth” (The EMBO Journal, 2016).
# Several values for one entry are separate records, joined by “and”; a condition that tells them apart may be missing. Identical values can stand only once.
# Tested on: ZR-75-1 cells
# Experiment: NanoString human kinome mRNA quantification
# Type: cell-based
# Excerpt: Human mRNAs were hybridised to NanoString human kinome and control code sets, then subjected to quantification using NanoString software. […] To permit data compaction, and simple kinome‐wide comparisons, the fold changes are log2 transformed. […] Cell pellets were resuspended at a concentration of ~6,500 cells/μl in RLT buffer (Qiagen). […] For total copy numbers, triplicate normalised count values were averaged, and to calculate fold induction, means were divided by triplicate mean values from matched DMSO controls. P‐values were calculated using unpaired t‐test (GraphPad Prism software) by employing treated and control count data for each kinase mRNA.
smiles,measurement,setting,value
NC1(c2ccc(-c3nc4ccn5c(=O)[nH]nc5c4cc3-c3ccccc3)cc2)CCC1 [MK-2206],rank of SGK3 mRNA expression in the 536-member kinase panel,"1 μM, day 5, ZR-75-1, DMSO control 230th",94
same,AAK1 Average normalised counts,"AAK1 mRNA, average of 3 replicates",782.49
same,AAK1 Normalised counts,"AAK1 mRNA, single replicates",765.01 and 806.95 and 775.51
same,AATK Average normalised counts,"AATK mRNA, average of 3 replicates",168.267
same,AATK Normalised counts,"AATK mRNA, single replicates",168.73 and 152.79 and 183.28
same,ABL1 Average normalised counts,"ABL1 mRNA, average of 3 replicates",597.787
same,ABL1 Normalised counts,"ABL1 mRNA, single replicates",594.12 and 597.59 and 601.65
same,ABL2 Average normalised counts,"ABL2 mRNA, average of 3 replicates",904.847
same,ABL2 Normalised counts,"ABL2 mRNA, single replicates",861.36 and 926.84 and 926.34
same,ACVR1B Normalised counts,"ACVR1B mRNA, single replicates",285.69
same,ACVR1C Average normalised counts,"ACVR1C mRNA, average of 3 replicates",2.92
same,ACVR1C Normalised counts,"ACVR1C mRNA, single replicates",2.39 and 2.5 and 3.87
same,ACVR1 Normalised counts,"ACVR1 mRNA, single replicates",276.15 and 273.79
same,ACVR2A Average normalised counts,"ACVR2A mRNA, average of 3 replicates",137.863
same,ACVR2A Normalised counts,"ACVR2A mRNA, single replicates",146 and 131.94 and 135.65
same,ACVR2B Average normalised counts,"ACVR2B mRNA, average of 3 replicates",119.837
same,ACVR2B Normalised counts,"ACVR2B mRNA, single replicates",122.37 and 110.22 and 126.92
same,ACVRL1 Average normalised counts,"ACVRL1 mRNA, average of 3 replicates",5.713
same,ACVRL1 Normalised counts,"ACVRL1 mRNA, single replicates",4.2 and 5.1 and 7.84
same,ADCK1 Average normalised counts,"ADCK1 mRNA, average of 3 replicates",103.98
same,ADCK1 Normalised counts,"ADCK1 mRNA, single replicates",96.01 and 112.83 and 103.1
same,ADCK2 Average normalised counts,"ADCK2 mRNA, average of 3 replicates",571.397
same,ADCK2 Normalised counts,"ADCK2 mRNA, single replicates",535.04 and 567.18 and 611.97
same,ADCK3 Average normalised counts,"ADCK3 mRNA, average of 3 replicates",173.12
same,ADCK3 Normalised counts,"ADCK3 mRNA, single replicates",181.45 and 164.95 and 172.96
same,ADCK4 Average normalised counts,"ADCK4 mRNA, average of 3 replicates",488.637
same,ADCK4 Normalised counts,"ADCK4 mRNA, single replicates",486.86 and 483.78 and 495.27
same,ADCK5 Average normalised counts,"ADCK5 mRNA, average of 3 replicates",272.407
same,ADCK5 Normalised counts,"ADCK5 mRNA, single replicates",276.89 and 275.28
same,ADRBK1 Average normalised counts,"ADRBK1 mRNA, average of 3 replicates",4377.38
same,ADRBK1 Normalised counts,"ADRBK1 mRNA, single replicates",4312.7 and 4473.91 and 4345.53
same,ADRBK2 Average normalised counts,"ADRBK2 mRNA, average of 3 replicates",361.227
same,ADRBK2 Normalised counts,"ADRBK2 mRNA, single replicates",361.43 and 359.55 and 362.7
same,AKT1 Average normalised counts,"AKT1 mRNA, average of 3 replicates",6880.64
same,AKT1 Normalised counts,"AKT1 mRNA, single replicates",6785.99 and 6852.52 and 7003.4
same,AKT2 Average normalised counts,"AKT2 mRNA, average of 3 replicates",2329.47
same,AKT2 Normalised counts,"AKT2 mRNA, single replicates",2337.52 and 2309.87 and 2341.02
same,AKT3 Average normalised counts,"AKT3 mRNA, average of 3 replicates",1.89
same,AKT3 Normalised counts,"AKT3 mRNA, single replicates",2.39 and 1 and 2.28
same,ALK Average normalised counts,"ALK mRNA, average of 3 replicates",1
same,ALK Normalised counts,"ALK mRNA, single replicates",1
same,ALPK2 Average normalised counts,"ALPK2 mRNA, average of 3 replicates",16.6133
same,ALPK2 Normalised counts,"ALPK2 mRNA, single replicates",12.38 and 22.48 and 14.98
same,ALPK3 Average normalised counts,"ALPK3 mRNA, average of 3 replicates",74.1967
same,ALPK3 Normalised counts,"ALPK3 mRNA, single replicates",85.1 and 68.52 and 68.97
same,AMHR2 Average normalised counts,"AMHR2 mRNA, average of 3 replicates",1
same,AMHR2 Normalised counts,"AMHR2 mRNA, single replicates",1
same,ANKK1 Average normalised counts,"ANKK1 mRNA, average of 3 replicates",2.167
same,ANKK1 Normalised counts,"ANKK1 mRNA, single replicates",1 and 1.63 and 3.87
same,ARAF Average normalised counts,"ARAF mRNA, average of 3 replicates",918.807
same,ARAF Normalised counts,"ARAF mRNA, single replicates",894.08 and 950.29 and 912.05
same,ATM Average normalised counts,"ATM mRNA, average of 3 replicates",3.063
same,ATM Normalised counts,"ATM mRNA, single replicates",5.11 and 1 and 3.08
same,ATR Average normalised counts,"ATR mRNA, average of 3 replicates",668.797
same,ATR Normalised counts,"ATR mRNA, single replicates",672.29 and 661 and 673.1
same,AURKA Average normalised counts,"AURKA mRNA, average of 3 replicates",948.07
same,AURKA Normalised counts,"AURKA mRNA, single replicates",903.17 and 1006.76 and 934.28
same,AURKB Average normalised counts,"AURKB mRNA, average of 3 replicates",1225.21
same,AURKB Normalised counts,"AURKB mRNA, single replicates",1232.22 and 1235.24 and 1208.17
same,AURKC Average normalised counts,"AURKC mRNA, average of 3 replicates",8.06
same,AURKC Normalised counts,"AURKC mRNA, single replicates",7.84 and 7.71 and 8.63
same,AXL Average normalised counts,"AXL mRNA, average of 3 replicates",5.22
same,AXL Normalised counts,"AXL mRNA, single replicates",3.29 and 7.71 and 4.66
same,BCKDK Average normalised counts,"BCKDK mRNA, average of 3 replicates",3561.04
same,BCKDK Normalised counts,"BCKDK mRNA, single replicates",3631.88 and 3513.08 and 3538.17
same,BCR Average normalised counts,"BCR mRNA, average of 3 replicates",1460.29
same,BCR Normalised counts,"BCR mRNA, single replicates",1503.09 and 1393.35 and 1484.43
same,BLK Average normalised counts,"BLK mRNA, average of 3 replicates",26.4533
same,BLK Normalised counts,"BLK mRNA, single replicates",26.93 and 30.3 and 22.13
same,BMP2K Average normalised counts,"BMP2K mRNA, average of 3 replicates",406.717
same,BMP2K Normalised counts,"BMP2K mRNA, single replicates",374.15 and 422.97 and 423.03
same,BMPR1A Average normalised counts,"BMPR1A mRNA, average of 3 replicates",4758.43
same,BMPR1A Normalised counts,"BMPR1A mRNA, single replicates",4812.63 and 4697.18 and 4765.49
same,BMPR1B Average normalised counts,"BMPR1B mRNA, average of 3 replicates",1516.82
same,BMPR1B Normalised counts,"BMPR1B mRNA, single replicates",1517.63 and 1515.84 and 1516.98
same,BMPR2 Average normalised counts,"BMPR2 mRNA, average of 3 replicates",568.93
same,BMPR2 Normalised counts,"BMPR2 mRNA, single replicates",569.58 and 587.16 and 550.05
same,BMX Average normalised counts,"BMX mRNA, average of 3 replicates",1
same,BMX Normalised counts,"BMX mRNA, single replicates",1
same,BRAF Average normalised counts,"BRAF mRNA, average of 3 replicates",627.873
same,BRAF Normalised counts,"BRAF mRNA, single replicates",623.21 and 634.94 and 625.47
same,BRD2 Average normalised counts,"BRD2 mRNA, average of 3 replicates",2991.5
same,BRD2 Normalised counts,"BRD2 mRNA, single replicates",2957.43 and 3009.21 and 3007.86
same,BRD3 Average normalised counts,"BRD3 mRNA, average of 3 replicates",697.943
same,BRD3 Normalised counts,"BRD3 mRNA, single replicates",683.2 and 692.28 and 718.35
same,BRD4 Average normalised counts,"BRD4 mRNA, average of 3 replicates",2588.8
